Reference: PubChem BioAssay (NCI)
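Method: 48-hour compound exposure of cells in 96-well plates, five concentrations, linear interpolation of endpoints. GI50 = concentration required for 50% inhibition of growth. At the TGI there is no net growth.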

Columns and labels:
Assay in all cases: NCI anticancer screen, dose series, 48 h
RXF 393 renal = system: RXF 393 renal
HOP-62 NSCLC = system: HOP-62 NSCLC
COLO 205 colon = system: COLO 205 colon
UO-31 renal = system: UO-31 renal
SK-MEL-28 melanoma = system: SK-MEL-28 melanoma
HT29 colon = system: HT29 colon
A549 NSCLC = system: A549 NSCLC
CAKI-1 renal = system: CAKI-1 renal
OVCAR-3 ovarian = system: OVCAR-3 ovarian
MOLT-4 leukemia = system: MOLT-4 leukemia

| Compound | TGI (RXF 393 renal) [µM] | TGI (HOP-62 NSCLC) [µM] | TGI (COLO 205 colon) [µM] | TGI (UO-31 renal) [µM] | TGI (SK-MEL-28 melanoma) [µM] | TGI (HT29 colon) [µM] | TGI (A549 NSCLC) [µM] | TGI (CAKI-1 renal) [µM] | TGI (OVCAR-3 ovarian) [µM] | GI50 (RXF 393 renal) [µM] | GI50 (HOP-62 NSCLC) [µM] | GI50 (COLO 205 colon) [µM] | GI50 (UO-31 renal) [µM] | GI50 (SK-MEL-28 melanoma) [µM] | GI50 (A549 NSCLC) [µM] | GI50 (CAKI-1 renal) [µM] | GI50 (MOLT-4 leukemia) [µM] | TGI (MOLT-4 leukemia) [µM] | GI50 (OVCAR-3 ovarian) [µM] | GI50 (HT29 colon) [µM] |
| --- | --- | --- | --- | --- | --- | --- | --- | --- | --- | --- | --- | --- | --- | --- | --- | --- | --- | --- | --- | --- |
| O=C(c1ccc(Cl)cc1)C1OC12C(=O)Nc1ccccc12 (configuration not stated) | 29.6 | > 73.3 | 8.53 | 29.4 | 29.5 | 27.5 | 58.6 | 20.6 | > 55.7 |  |  |  |  |  |  |  |  |  |  |  |
| CC1=C(C(=O)Nc2ccc(Cl)c(Cl)c2)C(c2ccccc2O)NC(=O)N1 (configuration not stated) | > 50 | > 50 | > 50 | > 50 | > 50 |  | > 50 | > 50 | > 50 | > 50 | > 50 | 28.3 | > 50 | > 50 | > 50 | > 50 | > 50 | > 50 | 19.1 |  |
| FC1OC2OC1C(OCc1ccccc1)C(OCc1ccccc1)C2OCc1ccccc1 (configuration not stated) | > 100 |  | > 100 | > 100 | > 100 | > 100 | > 100 | > 100 | > 100 |  |  |  |  |  |  |  |  | 67.4 |  |  |
| COc1ccc(S(=O)(=O)N(C)CC(=O)O)cc1 | > 100 |  | > 100 | > 100 | > 100 | > 100 | > 100 | > 100 | > 100 |  |  |  |  |  |  |  |  | > 100 |  |  |
| CCCCCCCCCCCCCCCCOC(=O)c1cc(O)cc(C(=O)OCCCCCCCCCCCCCCCC)c1 | > 100 |  | > 100 | > 100 | > 100 | > 100 | > 100 | > 100 | > 100 |  |  |  |  |  |  |  |  | > 100 |  |  |
| O=C(Nc1cccc(NC(=O)c2cc(=O)c3ccccc3o2)n1)c1cc(=O)c2ccccc2o1 | > 100 | > 100 | > 100 | 85.6 | > 100 |  | > 100 | > 100 | > 100 |  |  |  |  |  |  |  |  | > 100 |  |  |
| O=c1c2ccccc2oc2ccc(OCCCCCCN3CCCCCC3)cc12 | 5.6 |  | 4.05 | 6.32 | 4.58 | 6.57 | 11.5 |  | 16.1 | 2.17 |  | 1.93 | 2.05 | 2.01 | 3.51 |  | 2.38 | 6.29 | 4.09 | 1.91 |
| CCOC(=O)C(NC(=O)c1[nH]cnc1/N=N/N(C)C)C(C)C (configuration not stated) |  | > 100 | > 100 | > 100 | > 100 | > 100 | > 100 | > 100 | > 100 |  |  |  |  |  |  |  |  | > 100 |  |  |
| CC(=O)Oc1ccc(/C=N/NC(N)=S)nc1 | > 100 | 77.6 | > 100 | 14.1 | > 100 | > 100 | > 100 |  | > 100 | 4.24 | 6.15 | 31 | 3.51 | 25.5 | 29.5 |  | 2.57 | > 100 | 2.72 | 19 |
| CC(=O)N(Cc1ccccc1)c1ccccc1I(=O)=O | > 100 |  | 90.4 | > 100 | > 100 | > 100 | > 100 | > 100 | > 100 | > 100 |  | 28.9 | 38 | 34.5 | 55.6 | 42.2 | 12.7 | 42.9 | 33.9 | 27.8 |
| S=C(NCc1ccccc1)N/N=C/c1ccccn1 |  | 71.5 | > 100 | 21 | > 100 | > 100 | > 100 | > 96.6 | > 100 |  |  |  |  |  |  |  |  | 16.6 |  |  |
| COC(=O)CCCC(=O)NC1=C(NCc2ccccc2)C(=O)c2ccccc2C1=O |  |  | > 100 | > 100 | > 100 |  | > 100 | > 100 | 90.6 |  |  |  |  |  |  |  |  | > 100 |  |  |
| COc1cc2c(c(OC)c1OC)-c1ccc(SC)c(=O)cc1[C@@H](NC(=O)c1ccc(Cl)cc1)CC2 | 19.4 | 2.03 | 0.0265 | 62.6 | > 100 | 11.2 | > 100 |  | 2.64 |  |  |  |  |  |  |  |  | > 100 |  |  |
| CCOC(=O)C(=O)C(=O)NN(C)C1=NCCN1 | > 100 | > 100 | > 100 | > 100 | > 100 | > 100 | > 100 |  | > 100 |  |  |  |  |  |  |  |  | > 100 |  |  |
| CCOc1cc(-c2ccc[nH]2)[nH]c1/C=C1\N=C(C)C(C(=O)OC)=C1C | 0.0881 | 0.294 | 0.304 | 0.143 | 0.9 | 1.06 | 0.58 | 0.194 | 1.04 | 0.0219 | 0.0361 | 0.031 | 0.0252 | 0.143 | 0.0531 | 0.0331 |  |  | 0.0329 | < 0.0123 |
| Cc1cc([N+](=O)[O-])c(C)c(Br)c1C | > 100 | > 100 | > 100 | > 100 | > 100 | > 100 | > 100 | > 100 | > 100 |  |  |  |  |  |  |  |  |  |  |  |
| CC1OC2OC3C(OCC(O)C3O)OC(=O)[C@]34CCC(C)(C)CC3C3=CCC5[C@@]6(C)C[C@H](O)[C@H](OC7OC(CO)C(O)C(O)C7OC7OCC(OC(=O)CC(C)(O)CC(=O)OC1C(OC1OC(CO)C(O)C(O)C1O)C2O)C(O)C7O)[C@@](C)(CO)C6CC[C@@]5(C)[C@]3(C)CC4 (some centres not stated) |  | 8.75 | 7.61 | 14.9 | 6.22 | 19.4 | 13.5 | 16.1 | 19.3 |  |  |  |  |  |  |  |  | 21.3 |  |  |
| CC1OC(OC2CCC3(C=O)C4CCC5(C)C(C6=CC(=O)OC6)CCC5(O)C4CCC3(O)C2)C(O)C(O)C1O (configuration not stated) | 8.12e-05 | 3.85e-05 | 0.0025 |  | 0.000135 |  |  | 4.15e-05 |  |  |  |  |  |  |  |  |  | 1.6e-05 |  |  |
| C[C@@H]1C[C@]2(C[C@@H](C)C3[C@@H](CC4(C)[C@@H]5CCC6C(C)(C)OC(=O)C=C[C@]67C[C@@]5(CC[C@]34C)OO7)O2)OC1=O (some centres not stated) | > 100 |  | > 100 | > 100 | > 100 | > 100 | > 100 |  | 66.3 |  |  |  |  |  |  |  |  |  |  |  |
